Measured values reported in paper PMC9182086, “Identification of New Non-BBB Permeable Tryptophan Hydroxylase Inhibitors for Treating Obesity and Fatty Liver Disease” (Molecules, 2022).

How the values were obtained:
[1] = system: HFD-fed C57BL/6J mice; assay: In vivo efficacy test in high-fat diet fed mice; set-up: species or system mouse; settings: vs vehicle
Procedure: All animal study protocols were approved by the Institutional Animal Care and Use Committee at the Korea Advanced Institute of Science and Technology. Male C57BL/6J mice were purchased from SLC (Shizuoka, Japan) and acclimatized for a week. Mice were housed in a humidity and temperature-controlled environment under a 12 h light-dark cycle with ad libitum access to water and food. After acclimatization, male mice were fed a high-fat diet (HFD, 60% fat calories, Research diet; New Brunswick, NJ) and received daily treatment with TPH1 inhibitors. […] Compound 18i was dissolved in 5% dimethyl sulfoxide (DMSO) (Sigma, St. Louis, MO, USA) and 25% β-cyclodextrin (Sigma, St. Louis, MO, USA). Vehicle or compound 18i (100 mg kg^−1) was injected intraperitoneally in mice for 10 days after two weeks of HFD feeding. Both compounds 19 and 21 were prepared in 10% DMSO and 10% Kolliphor EL (Sigma, St. Louis, MO, USA). Vehicle and 100 mg kg^−1 of compound 19 or compound 21 were administered daily by intraperitoneal injection or oral feeding, respectively, concomitant to the initiation of HFD feeding. For analyzing blood glucose concentration, glucose in blood collected from the tail vein was measured after fasting mice for 16 h using a Gluco Dr. Top glucometer (Allemedicus, Anyang, Korea). Body weight was measured daily and mice were sacrificed for harvesting adipose tissue and liver.
Tissue samples were fixed in 10% formalin, embedded in paraffin, and cut into 5 μm thick sections, followed by deparaffinization and rehydration for H&E staining and UCP1 immunohistochemistry. After heat-induced antigen retrieval with a citrate buffer (pH 6.0) for 10 min at 95°C, tissue sections were incubated with BLOXALL Blocking solution (Vector Laboratories, Burlingame, CA, USA) to block endogenous peroxidase, followed by incubation with 2% normal goat serum in phosphate-buffered saline (PBS) for 30 min at room temperature to block nonspecific binding. Sections were incubated overnight with the anti-UCP1 primary antibody diluted 1:200 in 2% normal goat serum in PBS (Abcam, Cambridge, UK) at 4 °C, followed by 30 min incubation with biotinylated anti-rabbit IgG secondary antibody diluted 1:400 in PBS for 30 min at room temperature. After incubation with Vectastain […] reagent (Vector Laboratories) for 30 min, peroxidase activity was visualized with 3,3′-diaminobenzidine substrates (Vector Laboratories). For measuring average adipocyte size, we analyzed three random fields of H&E stained micrographs per adipose tissue sample from two representative mice of each group using AdipoCount software.
Fresh liver tissues were flash frozen in O.C.T. compound (Sakura Finetek, Torrance, CA, USA) and 10 μm cryostat sections were collected on glass slides. Sections were allowed to air-dry for 1 h, rinsed with PBS for 5 min, and washed with distilled water for 5 min. After washing, sections were placed in 30% isopropanol for 5 min, 60% isopropanol for 5 min twice, and then stained in Oil Red O solution (0.5% Oil red O (Sigma, St. Louis, MO, USA) dissolved in 60% isopropanol) for 15 min. The stained sections were rinsed twice with distilled water, mounted, coverslipped, and documented using bright field microscopy.

[2] = system: 3T3-L1 cells; assay: In vitro efficacy test: lipogenic/adipogenic gene expression during 3T3-L1 adipocyte differentiation; type: cell-based, mouse; settings: 10 μM or 50 μM, vs vehicle
Procedure: 3T3-L1 cells (American Type Culture Collection, Manassas, VA, USA) were cultured in DMEM supplemented with 10% FCS and […] P/S in a humidified chamber under 5% atmospheric CO2 at 37 °C. Two days after reaching confluence, cells were further cultured in adipocyte differentiation medium (DMEM/10% FBS, P/S, 0.5 mM IBMX, 1 μg mL^−1 insulin, and 1 μM dexamethasone) (day 0). After 2 days, the medium was changed to adipocyte maintenance medium (DMEM/10% FBS, 1 μg mL^−1 insulin, P/S) (day 2), and the media was changed every 2 days from day 4 to 8. Cells were treated with compound 6 at 10 or 50 μM concentrations throughout adipocyte differentiation (day 0 thru day 8). On day 8, differentiated 3T3-L1 […] were harvested for analysis of gene expression.
Total RNA was extracted from 3T3-L1 cells using Trizol reagent (Invitrogen, Carlsbad, CA, USA), purified using a RNeasy Lipid Tissue Mini kit (Qiagen, Hilden, Germany), and an aliquot (2 µg) of total RNA was reversed transcribed using the RevertAidTM First Strand cDNA Synthesis Kit (Thermo Fisher Scientific, Waltham, MA, USA) according to the manufacturer’s instructions. Real-time PCR was carried out using SYBR Green (Power SYBR Green PCR Master Mix, Thermo Fisher Scientific) with a ViiA™ 7 Real-Time PCR system (Applied Biosystems, Waltham, MA, USA). […]

SMILES: Cc1ccn(-c2cc(Cl)ccc2[C@@H](Oc2ncnc3c(-c4ccc(C[C@H](N)C(=O)O)cc4)csc23)C(F)(F)F)n1.Cl [Compound 18i, (S)-2-amino-3-(4-(4-((R)-1-(4-chloro-2-(3-methyl-1H-pyrazol-1-yl)phenyl)-2,2,2-trifluoroethoxy)thieno[3,2-d]pyrimidin-7-yl)phenyl)propanoic acid hydrochloride]
- Body weight gain ([1]; 100 mg/kg ip daily for 10 days after two weeks of HFD): blunted weight gain
- eWAT and BAT adipocyte size (histology) ([1]; 100 mg/kg ip daily for 10 days): significant reduction
- Fasting blood glucose levels ([1]; 16 h fasting): lower fasting blood glucose levels
- Expression of lipogenic genes Fasn, Srebp1c and adipogenic transcription factors Pparg, Cebpa [2]: decreased expression of key lipogenic genes
